Like-named read-outs stand apart in the source and are kept apart here.
Biological target: T1, human orexin type 2 receptor (hOX2R) (Homo sapiens, UniProt O43614)
T1 construct: expressed in transfected cells
T1 sequence (O43614 1-444): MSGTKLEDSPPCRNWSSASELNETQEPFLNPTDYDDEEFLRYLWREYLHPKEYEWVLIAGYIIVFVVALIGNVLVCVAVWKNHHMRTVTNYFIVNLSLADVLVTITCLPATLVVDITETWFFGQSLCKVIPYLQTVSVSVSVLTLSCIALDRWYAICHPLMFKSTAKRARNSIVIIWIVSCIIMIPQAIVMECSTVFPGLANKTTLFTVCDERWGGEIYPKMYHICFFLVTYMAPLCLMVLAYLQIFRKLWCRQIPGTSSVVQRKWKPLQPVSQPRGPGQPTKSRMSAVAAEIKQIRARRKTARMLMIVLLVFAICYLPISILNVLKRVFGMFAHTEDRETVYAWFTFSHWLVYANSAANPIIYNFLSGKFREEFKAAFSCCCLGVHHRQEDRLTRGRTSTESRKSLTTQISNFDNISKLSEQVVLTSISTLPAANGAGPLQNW
Assay: Measurement of orexin type 2 receptor agonist activity (FLIPR calcium fluorescence)
Assay type: cell-based
Settings: for EC50: read-out: hOx2 pEC50 (converted); for Emax: CHO, read-out: hOx2 Emax (%)
Method in brief: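 Agonism was read as fluorescence in cells stably expressing human OX2R. E. is the response at 10 μM relative to orexin A as full agonist (100%).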

[1] = CHO cells expressing hOX2R, FLIPR calcium fluorescence

Work on `O=C([C@H]1CCO1)N1CC2(CC2)[C@H](NS(=O)(=O)/C=C/F)[C@@H]1Cc1cccc(-c2ccccc2)c1F` [Compound 204, (E)-2-fluoro-N-((6S,7S)-6-((2-fluoro-[1,1′-biphenyl]-3-yl)methyl)-5-((R)-oxetane-2-carbonyl)-5-azaspiro[2.4]heptan-7-yl)ethene-1-sulfonamide] yielded an EC50 [1] of 10 to 100 nM and an Emax [1] of 90 to 100%.

In the case of `C[C@H](F)CNC(=O)N1CC2(CC2)[C@H](NS(=O)(=O)CF)[C@@H]1Cc1cccc(-c2ccccc2)c1F` [Compound 205], the EC50 [1] is reported as 1 to 10 nM and the Emax [1] is reported as 90 to 100%.

`C[C@@H](F)CNC(=O)N1CC2(CC2)[C@H](NS(=O)(=O)CF)[C@@H]1Cc1cccc(-c2ccccc2)c1F` [Compound 206, (6S,7S)-6-((2-fluoro-[1,1′-biphenyl]-3-yl)methyl)-7-((fluoromethyl)sulfonamido)-N—((R)-2-fluoropropyl)-5-azaspiro[2.4]heptane-5-carboxamide] was tested, and the EC50 [1] was 1 to 10 nM and the Emax was 90 to 100%.

`O=C(NCCF)N1CC2(CC2)[C@H](NS(=O)(=O)C(F)F)[C@@H]1Cc1cccc(-c2ccccc2)c1F` [Compound 207, (6S,7S)-7-((difluoromethyl)sulfonamido)-6-((2-fluoro-[1,1′-biphenyl]-3-yl)methyl)-N-(2-fluoroethyl)-5-azaspiro[2.4]heptane-5-carboxamide] showed an EC50 [1] of 1 to 10 nM and an Emax [1] of 90 to 100%.

With `O=C(NCC(F)(F)F)N1CC2(CC2)[C@H](NS(=O)(=O)CF)[C@@H]1Cc1cc(F)cc(-c2ccccc2)c1F` [Compound 208, (6S,7S)-6-((2,5-difluoro-[1,1′-biphenyl]-3-yl)methyl)-7-((fluoromethyl)sulfonamido)-N-(2,2,2-trifluoroethyl)-5-azaspiro[2.4]heptane-5-carboxamide] the EC50 [1] was 0.0794 to 1 nM and the Emax [1] was 90 to 100%.

`C[C@@H](NC(=O)N1CC2(CC2)[C@H](NS(=O)(=O)CF)[C@@H]1Cc1cccc(-c2ccccc2)c1F)C(F)(F)F` [Compound 209, (6S,7S)-6-((2-fluoro-[1,1′-biphenyl]-3-yl)methyl)-7-((fluoromethyl)sulfonamido)-N-((R)-1,1,1-trifluoropropan-2-yl)-5-azaspiro[2.4]heptane-5-carboxamide] gave an EC50 [1] of 0.0794 to 1 nM and an Emax [1] of 90 to 100%.

Compound `CC(C)(O)C(=O)N1CC2(CC2)[C@H](NS(=O)(=O)CF)[C@@H]1Cc1cc(F)cc(-c2cccc(F)c2)c1F` [Compound 210, 1-fluoro-N-((6S,7S)-5-(2-hydroxy-2-methylpropanoyl)-6-((2,3′,5-trifluoro-[1,1′-biphenyl]-3-yl)methyl)-5-azaspiro[2.4]heptan-7-yl)methanesulfonamide] has an EC50 [1] of 10 to 100 nM and an Emax [1] of 90 to 100%.

Work on `O=C(NCC(F)(F)F)N1CC2(CC2)[C@H](NS(=O)(=O)CF)[C@@H]1Cc1cccc(-c2ccccc2)c1F` [Compound 211, (6S,7S)-6-((2-fluoro-[1,1′-biphenyl]-3-yl)methyl)-7-((fluoromethyl)sulfonamido)-N-(2,2,2-trifluoroethyl)-5-azaspiro[2.4]heptane-5-carboxamide] yielded an EC50 [1] of 1 to 10 nM and an Emax [1] of 90 to 100%.

`C[C@H](CF)NC(=O)N1CC2(CC2)[C@H](NS(=O)(=O)C(F)F)[C@@H]1Cc1cccc(-c2ccccc2)c1F` [Compound 212, (6S,7S)-7-((difluoromethyl)sulfonamido)-6-((2-fluoro-[1,1′-biphenyl]-3-yl)methyl)-N-((R)-I-fluoropropan-2-yl)-5-azaspiro[2.4]heptane-5-carboxamide] gave an EC50 [1] of 1 to 10 nM and an Emax [1] of 90 to 100%.

With `O=C([C@H]1CCO1)N1CC2(CC2)[C@H](NS(=O)(=O)C(F)F)[C@@H]1Cc1cccc(-c2cccc(F)c2)c1` [Compound 213, 1,1-difluoro-N-((6S,7S)-6-((3′-fluoro-[1,1′-biphenyl]-3-yl)methyl)-5-((R)-oxetane-2-carbonyl)-5-azaspiro[2.4]heptan-7-yl)methanesulfonamide] the EC50 [1] was 1 to 10 nM and the Emax [1] was 90 to 100%.

`O=C([C@H]1CCO1)N1CC2(CC2)[C@H](NS(=O)(=O)C(F)F)[C@@H]1Cc1cccc(-c2cc(F)cc(F)c2)c1` [Compound 214, N-((6S,7S)-6-((3′,5′-difluoro-[1,1′-biphenyl]-3-yl)methyl)-5-((R)-oxetane-2-carbonyl)-5-azaspiro[2.4]heptan-7-yl)-1,1-difluoromethanesulfonamide] was tested, and the EC50 [1] was 1 to 10 nM and the Emax [1] was 90 to 100%.

In the case of `COC1(CNC(=O)N2CC3(CC3)[C@H](NS(=O)(=O)C(F)F)[C@@H]2Cc2cccc(-c3ccccc3)c2F)CC1` [Compound 215, (6S,7S)-7-((difluoromethyl)sulfonamido)-6-((2-fluoro-[1,1′-biphenyl]-3-yl)methyl)-N-((1-methoxycyclopropyl)methyl)-5-azaspiro[2.4]heptane-5-carboxamide], the EC50 [1] is reported as 0.0794 to 1 nM and the Emax [1] is reported as 90 to 100%.

`O=C([C@H]1CCO1)N1CC2(CC2)[C@H](NS(=O)(=O)CF)[C@@H]1Cc1cc(F)cc(-c2cccc(F)c2F)c1F` [Compound 217, 1-fluoro-N-((6S,7S)-5-((R)-oxetane-2-carbonyl)-6-((2,2′,3′,5-tetrafluoro-[1,1′-biphenyl]-3-yl)methyl)-5-azaspiro[2.4]heptan-7-yl)methanesulfonamide] was tested, and the EC50 [1] was 1 to 10 nM and the Emax [1] was 90 to 100%.

For `O=C([C@H]1CCO1)N1CC2(CC2)[C@H](NS(=O)(=O)CF)[C@@H]1Cc1cc(F)cc(-c2cc(F)ccc2F)c1F` [Compound 218, 1-fluoro-N-((6S,7S)-5-((R)-oxetane-2-carbonyl)-6-((2,2′,5,5′-tetrafluoro-[1,1′-biphenyl]-3-yl)methyl)-5-azaspiro[2.4]heptan-7-yl)methanesulfonamide], the EC50 [1] was 1 to 10 nM and the Emax [1] was 90 to 100%.

For `C[C@@H](NC(=O)N1CC2(CC2)[C@H](NS(=O)(=O)CF)[C@@H]1Cc1cccc(-c2ccccc2)c1F)C(F)F` [Compound 219, (6S,7S)-N-((R)-1,1-difluoropropan-2-yl)-6-((2-fluoro-[1,1′-biphenyl]-3-yl)methyl)-7-((fluoromethyl)sulfonamido)-5-azaspiro[2.4]heptane-5-carboxamide], the EC50 [1] was 1 to 10 nM and the Emax [1] was 90 to 100%.

With `O=C([C@H]1CCO1)N1CC2(CC2)[C@H](NS(=O)(=O)C(F)F)[C@@H]1Cc1cc(F)cc(-c2cc(F)cc(F)c2)c1F` [Compound 220, 1,1-difluoro-N-((6S,7S)-5-((R)-oxetane-2-carbonyl)-6-((2,3′,5,5′-tetrafluoro-[1,1′-biphenyl]-3-yl)methyl)-5-azaspiro[2.4]heptan-7-yl)methanesulfonamide] the EC50 [1] was 1 to 10 nM and the Emax [1] was 90 to 100%.

Work on `O=C([C@H](O)CF)N1CC2(CC2)[C@H](NS(=O)(=O)C(F)F)[C@@H]1Cc1cc(F)cc(-c2cc(F)cc(F)c2)c1F` [Compound 221, 1,1-difluoro-N-((6S,7S)-5-((S)-3-fluoro-2-hydroxypropanoyl)-6-((2,3′,5,5′-tetrafluoro-[1,1′-biphenyl]-3-yl)methyl)-5-azaspiro[2.4]heptan-7-yl)methanesulfonamide] yielded an EC50 [1] of 1 to 10 nM and an Emax of 90 to 100%.

Work on `CC(C)S(=O)(=O)N[C@@H]1[C@H](Cc2cccc(-c3cc(F)cc(F)c3)c2F)N(C(=O)[C@H]2CCO2)CC12CC2` [Compound 222, N-((6S,7S)-5-((R)-oxetane-2-carbonyl)-6-((2,3′,5′-trifluoro-[1,1′-biphenyl]-3-yl)methyl)-5-azaspiro[2.4]heptan-7-yl)propane-2-sulfonamide] yielded an EC50 [1] of 0.0794 to 1 nM and an Emax [1] of 90 to 100%.

`O=C([C@H]1CCO1)N1CC2(CC2)[C@H](NS(=O)(=O)C2CC2)[C@@H]1Cc1cccc(-c2cc(F)cc(F)c2)c1F` [Compound 223, N-((6S,7S)-5-((R)-oxetane-2-carbonyl)-6-((2,3′,5′-trifluoro-[1,1′-biphenyl]-3-yl)methyl)-5-azaspiro[2.4]heptan-7-yl)cyclopropanesulfonamide] was tested, and the EC50 [1] was 0.0794 to 1 nM and the Emax [1] was 90 to 100%.

With `COC[C@H](F)C(=O)N1CC2(CC2)[C@H](NS(=O)(=O)CF)[C@@H]1Cc1cccc(-c2ccccc2)c1F` [Compound 224, 1-fluoro-N-((6S,7S)-5-((S)-2-fluoro-3-methoxypropanoyl)-6-((2-fluoro-[1,1′-biphenyl]-3-yl)methyl)-5-azaspiro[2.4]heptan-7-yl)methanesulfonamide] the EC50 [1] was 1 to 10 nM and the Emax [1] was 90 to 100%.

With `N#C[C@]1(C(=O)N2CC3(CC3)[C@H](NS(=O)(=O)CF)[C@@H]2Cc2cccc(-c3ccccc3)c2F)CCO1` [Compound 226, N-((6S,7S)-5-((S)-2-cyanooxetane-2-carbonyl)-6-((2-fluoro-[1,1′-biphenyl]-3-yl)methyl)-5-azaspiro[2.4]heptan-7-yl)-1-fluoromethanesulfonamide] the EC50 [1] was 1 to 10 nM and the Emax [1] was 90 to 100%.

`O=C([C@H]1CCO1)N1CC2(CC2)[C@H](NS(=O)(=O)CF)[C@@H]1Cc1cc(F)cc(-c2cc(F)cc(F)c2)c1F` [Compound 227, 1-fluoro-N-((6S,7S)-5-((R)-oxetane-2-carbonyl)-6-((2,3′,5,5′-tetrafluoro-[1,1′-biphenyl]-3-yl)methyl)-5-azaspiro[2.4]heptan-7-yl)methanesulfonamide] showed an EC50 [1] of 1 to 10 nM and an Emax [1] of 90 to 100%.

With `O=C(NCC1(F)CC1)N1CC2(CC2)[C@H](NS(=O)(=O)CF)[C@@H]1Cc1cc(F)cc(-c2ccccc2)c1F` [Compound 228, (6S,7S)-6-((2,5-difluoro-[1,1′-biphenyl]-3-yl)methyl)-N-((1-fluorocyclopropyl)methyl)-7-((fluoromethyl)sulfonamido)-5-azaspiro[2.4]heptane-5-carboxamide] the EC50 [1] was 1 to 10 nM and the Emax [1] was 90 to 100%.
